Reference: patent US9220243B2, “Models of atherosclerosis, hyperlipidemia, lipoprotein oxidation and blood vessel inflammation and methods for making and using them” (THE REGENTS OF THE UNIVERSITY OF CALIFORNIA, priority 2006, dated 2015)

System: Fli:EGFP zebrafish larvae
Test: High fat diet zebrafish larvae model with fluorescent cholesterol ester, ezetimibe added to the tank water, confocal imaging
Format: in vivo, zebrafish (Danio rerio)
Conditions: 10 days on high fat diet with fluorescent (red) cholesterol ester
Experimental: Spray cholesterol (4% in ether) on the fish food, let it dry for 2 hours in a fume hood. Collect and keep at 4° C. Feed the fish with high-cholesterol food for 7 days to 8 weeks.
To visualize the lipid in larvae zebrafish, add to the cholesterol ether solution 10 μg/ml of cholesteryl BODIPY 576/589 C11 (Invitrogen, C12681). […] Feed fli:EGFP zebrafish with this high-cholesterol diet for one week.
Use a fluorescent confocal microscope to image dorsal aorta of a fli:EGFP zebrafish (wild type or ApoE knockdown) that was placed on a high-cholesterol diet, and compare with a control zebrafish that was fed a normal diet.
Visualize using a C1si confocal microscope: • endothelial cell morphology and the morphology of the vessel • accumulation of fluorescent lipid in the artery wall
FIG. 5. Ezetimibe reduces cholesterol absorption in zebrafish intestine (A) and prevents vascular damage (B). Fli:EGFP zebrafish larvae were feeding for 10 days on high fat diet with a fluorescent (red) cholesterol ester, with or without the addition of ezetimibe in the tank water. Ezetimibe, or (3R,4S)-1-(4-fluorophenyl)-3-((3S)-3-(4-fluorophenyl)-3-hydroxypropyl)-4-(4-hydroxyphenyl)-2-azetidinone, is an FDA-approved medicine (marketed as ZETIA™), which inhibits the absorption of cholesterol by the small intestine. […] Remarkably, ezetimibe rescued blood vessels from high fat diet-induced damage.

`O=C1[C@H](CC[C@H](O)c2ccc(F)cc2)[C@@H](c2ccc(O)cc2)N1c1ccc(F)cc1` [Ezetimibe, (3R,4S)-1-(4-fluorophenyl)-3-((3S)-3-(4-fluorophenyl)-3-hydroxypropyl)-4-(4-hydroxyphenyl)-2-azetidinone] was tested, and the “level of cholesterol accumulated in the digestive system (intensity of red fluorescence)” value (FIG. 5(A)) was “considerably reduced a level of cholesterol accumulated in the digestive system” and the “pathological changes in the endothelial layer morphology inflicted by high fat diet (vascular damage)” value (FIG. 5(B)) was “prevented pathological changes in the endothelial layer morphology”.
